Here are results for 7 compounds from patent US7973011B2, “Blockade of gamma-secretase activity to promote myelination by oligodendrocytes” (The Board of Trustees of the Leland Stanford Junior …, priority 2006, dated 2011).

“Also recorded” adds a separate entry of the source. Where two headings read alike, the source gives them in different places.

The target in assay [1] is T1, γ-secretase (Homo sapiens, UniProt P49768). The conditions noted are these: read-out: In cells; cited from earlier work.
Assay [2] concerns the target T1, γ-secretase. The conditions noted are these: read-out: Cell-free; cited from earlier work.
A further assay has as its target γ-secretase active site (Homo sapiens, UniProt P49768). The conditions noted are these: cited from earlier work.
The test system of assay [3] is oligodendrocytes in OPC-RGC reaggregate cocultures. The assay is described as follows: OPC-RGC reaggregate coculture myelination (MBP/NG2 immunostaining). It counts as cell-based, rat. How it is done: Purification of RGCs. Retinal ganglion cells (RGCs) were purified to >99.5% homogeneity from two- to three-litters of 5-day-old (P5) rat retinae by immunopanning as previously described. Briefly, retinae were digested with papain at 37° C. Following gentle trituration, cells were resuspended in a panning buffer containing insulin (5 μg/ml) and then incubated at room temperature with rabbit anti-macrophage antibodies. Retinal cells were incubated at room temperature sequentially on three immunopanning dishes: two coated with anti-rabbit secondary antibodies (to negatively select macrophages) and the third with T11D7 anti-Thy1 mAb. RGCs were released from the final panning dish with trypsin (Sigma).
To produce reaggregates, RGCs were plated at high density (>1,000 cells/μl) in 400 μl RGC growth medium in wells an 8-well chamber-slide (Nunc) coated with a surface that is not strongly adherent for RGCs (Permanox). One- to three-hours after plating, RGCs were resuspended gently to promote interaction and reaggregation, and this was repeated the following day. Following two days of culture at high density, reaggregates were collected and allowed to settle to separate them from dead RGCs, non-aggregated cells, and small reaggregates (<10 cells). […]

Assay [4] deals with Notch1f/f OPCs on RGC reaggregates. The assay is described as follows: Myelination by floxxed Notch1 OPCs (AdCre/AdEmpty) cocultured with RGC reaggregates. Format: cell-based, mouse. Conditions: 1 μM DAPT, six days of coculture, with or without glial Notch1. How it is done: FIG. 5. […] (A-C) Infection of OPCs from floxxed Notch1 mice (Notch1^f/f) with a recombinant adenovirus for expression of Cre recombinase (AdCre) results in rapid reduction of Notch1 protein. Notch1^f/f-OPCs, purified by immunopanning with anti-PDGFRα, were cultured for 2 days prior to infection for 24 hours with AdCre or a control virus (AdEmpty) at a multiplicity of infection of 10. The next day, cells were re-plated on RGC reaggregate cultures and on coverslips for analysis of Notch1 knockout, which was assessed by immunostaining (a,b) and Western blot analysis 24 hours later (c).
Conditional knockout cells and infection with AdCre. OPCs were purified from P9 Notch1 conditional knockout (gift of A. Rosenthal, Genentech) and presenilin double conditional knockout (gift of Jie Shen, Brigham and Women's hospital) mouse brains by a slight modification of the panning protocol for rat cells as described previously. The first panning dish was coated with mouse anti-mouse Thy1.2 (Serotec) rather than Ran-2. Mouse OPCs were plated on PDL-coated flasks in defined proliferation medium (DMEM supplemented with B27, insulin, 10 ng/ml PDGF, 1 ng/ml NT3, 10 ng/ml CNTF, and forskolin) for 2 days and then passaged onto PDL-coated tissue culture plates at a density of 1 million cells per plate. […]

Assay [5] has as its system dorsal root ganglion (DRG) neurons and oligodendrocytes. The assay is described as follows: Myelination of dorsal root ganglion neurons by oligodendrocytes. It counts as cell-based.
For a further assay, the target named is PS-1 (Homo sapiens, UniProt P49768). Conditions: cited from earlier work.
A further assay concerns the target PS-2 (Homo sapiens, UniProt P49810). Conditions: cited from earlier work.
Another assay has as its target gamma-secretase (Homo sapiens, UniProt P49768). Conditions: recombinant APP C100 substrate; cited from earlier work.

For `COC(=O)[C@@H](NC(=O)[C@H](CC(C)C)NC(=O)N(Cc1ccccc1)C[C@@H](O)[C@H](Cc1ccccc1)NC(=O)OC(C)(C)C)C(C)C` [III-31-C], the IC50 at γ-secretase [1] was 200 nM; on γ-secretase [2], 10 nM. Further, on γ-secretase active site, the Displacement result is given as “YES”.

In the case of (Z-LL)2-ketone, the IC50 on γ-secretase [1] is over 100000 nM; on γ-secretase [2] it was 30000 nM. At γ-secretase active site, the Displacement entry is listed as “YES”.

Regarding `C[C@H](NC(=O)Cc1cc(F)cc(F)c1)C(=O)N[C@H](C(=O)OC(C)(C)C)c1ccccc1` [DAPT], in assay [3] (1 μM DAPT, six-day cocultures), the “proportion of MBP+ oligodendrocytes that formed myelin segments” value was “significantly increased; also recorded: the majority of oligodendrocytes myelinate”. The “proportion of NG2+ OPCs or MBP+ oligodendrocytes” value in assay [3] (cocultures with DAPT) is recorded as “did not consistently alter”. Also, the “myelination (proportion of cells that myelinate)” value in assay [4] is given as “enhances myelination either in the presence (AdEmpty) or absence (AdCre) of glial Notch1”. Moreover, the “myelination of DRG neurons by oligodendrocytes” value in assay [5] was “profoundly enhanced myelination”. In addition, the IC50 on γ-secretase [1] is 20 nM. The IC50 on γ-secretase [2] was 10 nM. On γ-secretase active site, the Displacement result is reported as “YES” and the “competition for the γ-secretase active site in a displacement assay” value is on record as “can compete moderately”. On PS-1, the “inhibition of PS-1” value is recorded as “inhibits”. Besides, the “inhibition of PS-2” value on PS-2 is “inhibits”.

As to `CSc1ccc(/C=C2/C(C)=C(CC(=O)O)c3cc(F)ccc32)cc1` [Sulindac sulfide], the “inhibition of gamma(42)-secretase activity” value on gamma-secretase is recorded as “preferentially inhibits”.

Take `C[C@@H](NC(=O)Cc1cc(F)cc(F)c1)C(=O)N[C@H]1N=C(c2ccccc2)c2ccccc2N(C)C1=O` [Compound E]: the IC50 was 0.3 nM on γ-secretase [1] and 3 nM on γ-secretase [2]. Moreover, the Displacement entry on γ-secretase active site is listed as “YES”.

As for “Boc-D-Val-Gly-Aib-D-Val-D-Val-D-He-Aib-D-Thr(OBn)-D-Val-Aib-OMe [D-Helical peptide 294]”, the IC50 on γ-secretase [1] is 3000 nM; on γ-secretase [2] it was 100 nM.

For the compound `CCC(C)C(NC(=O)C(CCCCNC(=O)OC(C)(C)C)NC(=O)OC(C)(C)C)C(=O)NC(CC(C)C)C1CO1` (stereo not drawn) [Epoxide], the IC50 on γ-secretase [1] and on γ-secretase [2] was 20000 nM throughout.
